Test results as given in patent US4010282A, “Anti-arrhythmic agents” (Knoll A.G. Chemische Fabriken, priority 1974, dated 1977).
Read-outs that look alike come from different tables or passages of the source.

How the values were obtained:
[1] = test system: left auricle of the guinea pig; assay: functional refractory period of the left auricle of the guinea pig using paired electrical stimulation (anti-arrhythmic effect); conditions: for activation at 100 µM: 10^-^4 Mol/l; for Anti-arrhythmic Effect (Prolongation of the Refractory Period) ED25: dose which lengthens the refractory period by 25 percent, up to 30 minutes after addition to bath liquid; for activation at 10 µM: 10^-^5 Mol/l
From the text: (§1) Jovier, J. Pharmakol. Exp. Therap. 148, 100-105 (1965). In this experimental arrangement, the numerous anti-arrhythmic agents, of different chemical structure and different therapeutic points of attack in man, heretofore used in therapy are all characterized by a lengthening of the functional refractory period. The method additionally permits determining the effects of the substance on the contractile force of the heart muscle [Reuter and Heeg, Naunyn-Schmiedeberg's Arch. Pharmak. 268, 323-333 (1971) and Zetler and Strubelt, Naunyn-Schmiedeberg's Arch. Pharmak. 271, 335-345 (1971)]. It is, thus, highly suitable for detecting substances having a large therapeutic breadth, i.e., with a large margin of safety between anti-arrhythmically- and negative inotropically-effective doses.
The testing of the substances employed up to 30 individual experiments in each case. For the determination of the effective dose, linear regression functions were calculated [cf. A. Lindner, Statistische Methoden, 3rd Edition, Birkhaeuser Verlag, Basel (1969)], in which the maximum percentage deviations from the starting value in a time period up to 30 minutes after addition of the test substance to the bath liquid was employed.
(§2) In column I of following Table 1, one of the new compounds and known anti-arrhythmic agents are entered. Column II gives the anti-arrhythmic effect. Column III reports the inotropic effect. The therapeutic breadth of the compounds is given in column IV. The ED25 is the effective dose which lengthens the refractory period by 25 percent or lowers the contractile force by 25 percent.

[2] = test system: left auricle of the guinea pig; assay: inotropic effect: decrease in contractile force of the heart muscle; conditions: for Therapeutic Breadth (III/II): ratio ED25 inotropic / ED25 anti-arrhythmic
From the text: as §1, with “148, 100-105 (1965).” left out, “268, 323-333 (1971) and Zetler and Strubelt, Naunyn-Schmiedeberg's Arch.” left out, “271, 335-345 (1971)].” left out
The testing of the substances employed up to 30 individual experiments in each case. For the determination of the effective dose, linear regression functions were calculated [cf.
as §2

rats = assay: aconitine-induced disturbance of the heart rhythm in rats (electrocardiogram); format: in vivo; conditions: for ED25 / ED50: Rattus norvegicus
From the text: The anti-arrhythmic effect of the diamines could also be confirmed in intact research animals with an experimentally-induced disturbance of the heart rhythm. If rats are continuously infused intravenously with aconitine, severe disturbances in the heartbeat sequence, such as extrasystoles, ventricular tachycardia, and ventricular flutter, which eventually lead to the death of the experimental animal, can be detected in an electrocardiogram. By a pre-treatment with the new pharmaceutical agents, the appearance of these threatening disturbances of the heart rhythm can be hindered or, on continuous administration of aconitine, can be considerably delayed. This experimental model of arrhythmia has already been checked for its evidentiary value using clinically tested standard therapeutic agents and is highly suitable for an experimental animal characterization of anti-arrhythmic agents [cf. Bianchi et al., Arzneim. Forsch. 18, 845-850 (1968); Haas and Busch, Arzneim. Forsch. 18, 401-407 (1968); Haas et al., Arzneim. Forsch. 21, 1392-1399 (1971); Marmo, Naunyn-Schmiedeberg's Arch. Pharmak. 269, 231-247 (1971); and Strubelt et al., Naunyn-Schmiedeberg's Arch. Pharmak. 271, 346-360 (1971)].
The ED25 and ED50 are the intravenous or oral doses in mg/kg that permit a 25 percent or 50 percent increase in the dosage of aconitine administered, versus the aconitine control, until the occurrence of extrasystoles, ventricular tachycardia, and ventricular flutter.

[3] = Cavia porcellus, read-out: Anti-arrhythmic Effect (% Prolongation of the Refractory Period)
[4] = iv, read-out: Ventr. Tachycardia ED25
[5] = iv, read-out: Ventr. Tachycardia ED50
[6] = dose which lowers the contractile force by 25 percent, up to 30 minutes after addition to bath liquid

**Q.** What does the source list for `c1ccc(CNCCCNCc2ccccc2)cc1`?
**A.** activation at 100 µM [1, 3]: 47%; Anti-arrhythmic Effect (Prolongation of the Refractory Period) ED25 [1]: 0.054; Inotropic Effect (Decrease in Contractile Force) ED25 ([2]; guinea pig): 0.141; Therapeutic Breadth (III/II) [2]: 2.6; ED25 (rats; iv, read-out: Extrasystoles ED25): 5.2 mg/kg; ED50 (rats; iv, read-out: Extrasystoles ED50): 6 mg/kg; ED25 (rats; iv, read-out: Ventr. Flutter ED25): 4.9 mg/kg; ED50 (rats; iv, read-out: Ventr. Flutter ED50): 6.4 mg/kg; ED25 (rats; [4]): 5.3 mg/kg; ED50 (rats; [5]): 6.2 mg/kg; ED25 (rats; po, read-out: Extrasystoles ED25): 65.8 mg/kg; ED50 (rats; po, read-out: Extrasystoles ED50): 96.2 mg/kg; ED25 (rats; po, read-out: Ventr. Flutter ED25): 51.1 mg/kg; ED50 (rats; po, read-out: Ventr. Flutter ED50): 69.9 mg/kg; ED25 (rats; po, read-out: Ventr. Tachycardia ED25): 55.4 mg/kg; ED50 (rats; po, read-out: Ventr. Tachycardia ED50): 71.6 mg/kg; effect in aconitine arrhythmia (rats; Table 3, parenterally as well as orally): superior effect

**Q.** Which results are given for `c1ccc(CN(CC2=NCCN2)c2ccccc2)cc1` [Antazoline, antazoline]?
**A.** Anti-arrhythmic Effect (Prolongation of the Refractory Period) ED25 [1]: 0.164; Inotropic Effect (Decrease in Contractile Force) ED25 [2, 6]: 0.094; Therapeutic Breadth (III/II) [2]: 0.6

**Q.** `Clc1cccc(CNCCCNCc2cccc(Cl)c2)c1` [N,N'-di-(3'-chlorobenzyl)-propylene-1,3-diamine] was tested. Which activation at 20 µM ([1]; Cavia porcellus, 2 × 10^-^5 Mol/l, read-out: Anti-arrhythmic Effect (% Prolongation of the Refractory Period)) did it give?
**A.** 45%

**Q.** With `Clc1ccc(CNCCCNCc2ccc(Cl)cc2)cc1` [N,N'-di-(4'-chlorobenzyl)-1,3-diaminopropane] as the compound, how does the activation at 10 µM [1, 3] read?
**A.** 37%

**Q.** For `Clc1ccc(CNCCCNCc2ccc(Cl)c(Cl)c2)cc1Cl` [N,N'-di-(m,p-dichlorobenzyl)-propylenediamine], which activation at 10 µM [1, 3] is on record?
**A.** 26%

**Q.** Which activation at 100 µM [1, 3] does the source give for `COc1ccc(CNCCCNCc2ccc(OC)c(OC)c2)cc1OC` [N,N'-di-(m,p-dimethoxybenzyl)propylenediamine] here?
**A.** 42%

**Q.** With `c1ccc(CNCCNCc2ccccc2)cc1` [N,N'-dibenzyl-ethylenediamine] as the compound, how does the activation at 100 µM [1, 3] read?
**A.** 39%

**Q.** Which “Anti-arrhythmic Effect (Prolongation of the Refractory Period) ED25” value [1] does the source give for `CCC[N+]12C(O)C(CC)C3CC1C1N(C)c4ccccc4C14CC2C3C4O` (stereo not drawn) [N,n-propylajmaline, N-propylajmaline] here?
**A.** 0.0037

**Q.** What about the “Inotropic Effect (Decrease in Contractile Force) ED25” value [2, 6] of the same compound?
**A.** 0.0015

**Q.** What about the “Therapeutic Breadth (III/II)” value [2] of the same compound?
**A.** 0.4

**Q.** `C1CCN2C[C@@H]3C[C@@H](CN4CCCC[C@@H]34)[C@H]2C1` [SPARTEINE, reference compound] was tested. Which ED25 (rats; [4]) did it give?
**A.** 4.4 mg/kg

**Q.** What about the ED50 (rats; [5]) of the same compound?
**A.** 9.6 mg/kg
